# Species: Rattus norvegicus
# Assay: DrugMatrix - Regimen: Daily Repeat
# Type: toxicity, organism-based, Sprague-Dawley
# Parameters: regimen Daily Repeat, gender Male, age 6-8 weeks
# Settings: in vivo, po, route oral GAVAGE, vehicle .5 % CMC; for BASOPHIL / EOSINOPHIL / ERYTHROCYTE COUNT / HEMATOCRIT / HEMOGLOBIN / LEUKOCYTE COUNT / LYMPHOCYTE / MEAN CORPUSCULAR HEMOGLOBIN / MEAN CORPUSCULAR HEMOGLOBIN CONCENTRATION / MEAN CORPUSCULAR VOLUME / MONOCYTE / NEUTROPHIL / PLATELET COUNT: tissue Blood; for ALANINE AMINOTRANSFERASE / ALBUMIN / ALKALINE PHOSPHATASE / ASPARTATE AMINOTRANSFERASE / BLOOD UREA NITROGEN / CHLORIDE / CHOLESTEROL / CREATINE PHOSPHOKINASE / CREATININE / GLUCOSE / PHOSPHORUS / POTASSIUM / SODIUM / TOTAL BILIRUBIN / TOTAL PROTEIN: tissue Plasma
# [1] = 0 mg/kg, 72 h, dose level Control, time 3 day
# [2] = 0 mg/kg, 120 h, dose level Control, time 5 day
# [3] = 25 mg/kg, 72 h, dose level Low, time 3 day
# [4] = 25 mg/kg, 120 h, dose level Low, time 5 day
smiles,measurement,setting,value
C[C@]12CCC(=O)C=C1CC[C@@H]1[C@@H]2C(=O)C[C@@]2(C)[C@H]1CC[C@]2(O)C(=O)CO [CORTISONE],BASOPHIL,[1],1.52%
same,EOSINOPHIL,[1],0.98%
same,ERYTHROCYTE COUNT,[1],6.96 x10E6/uL
same,HEMATOCRIT,[1],44.65%
same,HEMOGLOBIN,[1],13.62 G/DL
same,LEUKOCYTE COUNT,[1],9.83 x10E3/uL
same,LYMPHOCYTE,[1],76.48%
same,MEAN CORPUSCULAR HEMOGLOBIN,[1],19.57 pg
same,MEAN CORPUSCULAR HEMOGLOBIN CONCENTRATION,[1],30.47 G/DL
same,MEAN CORPUSCULAR VOLUME,[1],64.22 fL
same,MONOCYTE,[1],2.13%
same,NEUTROPHIL,[1],18.6%
same,PLATELET COUNT,[1],1217.17 x10E3/uL
same,ALANINE AMINOTRANSFERASE,[1],41 u/L
same,ALBUMIN,[1],3.77 G/DL
same,ALKALINE PHOSPHATASE,[1],411.83 u/L
same,ASPARTATE AMINOTRANSFERASE,[1],62.83 u/L
same,BLOOD UREA NITROGEN,[1],15.17 mg/dL
same,CHLORIDE,[1],104.33 MEQ/L
same,CHOLESTEROL,[1],71.17 mg/dL
same,CREATINE PHOSPHOKINASE,[1],123.5 u/L
same,CREATININE,[1],0.55 mg/dL
same,GLUCOSE,[1],182.67 mg/dL
same,PHOSPHORUS,[1],11.23 mg/dL
same,POTASSIUM,[1],7.03 MEQ/L
same,SODIUM,[1],148 MEQ/L
same,TOTAL BILIRUBIN,[1],0.57 mg/dL
same,TOTAL PROTEIN,[1],6.85 G/DL
same,BASOPHIL,[2],1.35%
same,EOSINOPHIL,[2],0.43%
same,ERYTHROCYTE COUNT,[2],6.96 x10E6/uL
same,HEMATOCRIT,[2],44.35%
same,HEMOGLOBIN,[2],13.98 G/DL
same,LEUKOCYTE COUNT,[2],9.45 x10E3/uL
same,LYMPHOCYTE,[2],80.83%
same,MEAN CORPUSCULAR HEMOGLOBIN,[2],20.1 pg
same,MEAN CORPUSCULAR HEMOGLOBIN CONCENTRATION,[2],31.52 G/DL
same,MEAN CORPUSCULAR VOLUME,[2],63.72 fL
same,MONOCYTE,[2],2.37%
same,NEUTROPHIL,[2],14.05%
same,PLATELET COUNT,[2],1298 x10E3/uL
same,ALANINE AMINOTRANSFERASE,[2],42.17 u/L
same,ALBUMIN,[2],3.77 G/DL
same,ALKALINE PHOSPHATASE,[2],419 u/L
same,ASPARTATE AMINOTRANSFERASE,[2],66.67 u/L
same,BLOOD UREA NITROGEN,[2],16.67 mg/dL
same,CHLORIDE,[2],103.17 MEQ/L
same,CHOLESTEROL,[2],66.33 mg/dL
same,CREATINE PHOSPHOKINASE,[2],148.33 u/L
same,CREATININE,[2],0.58 mg/dL
same,GLUCOSE,[2],196.83 mg/dL
same,PHOSPHORUS,[2],11.8 mg/dL
same,POTASSIUM,[2],6.47 MEQ/L
same,SODIUM,[2],148.33 MEQ/L
same,TOTAL BILIRUBIN,[2],0.53 mg/dL
same,TOTAL PROTEIN,[2],6.77 G/DL
same,BASOPHIL,[3],2.4%
same,EOSINOPHIL,[3],0.4%
same,ERYTHROCYTE COUNT,[3],6.64 x10E6/uL
same,HEMATOCRIT,[3],45.5%
same,HEMOGLOBIN,[3],13.9 G/DL
same,LEUKOCYTE COUNT,[3],7.9 x10E3/uL
same,LYMPHOCYTE,[3],78.6%
same,MEAN CORPUSCULAR HEMOGLOBIN,[3],21 pg
same,MEAN CORPUSCULAR HEMOGLOBIN CONCENTRATION,[3],30.6 G/DL
same,MEAN CORPUSCULAR VOLUME,[3],68.5 fL
same,MONOCYTE,[3],2.95%
same,NEUTROPHIL,[3],15.4%
same,PLATELET COUNT,[3],1648.5 x10E3/uL
same,ALANINE AMINOTRANSFERASE,[3],43 u/L
same,ALBUMIN,[3],3.8 G/DL
same,ALKALINE PHOSPHATASE,[3],401 u/L
same,ASPARTATE AMINOTRANSFERASE,[3],68.67 u/L
same,BLOOD UREA NITROGEN,[3],12 mg/dL
same,CHLORIDE,[3],103.67 MEQ/L
same,CHOLESTEROL,[3],62.67 mg/dL
same,CREATINE PHOSPHOKINASE,[3],120.67 u/L
same,CREATININE,[3],0.53 mg/dL
same,GLUCOSE,[3],178.33 mg/dL
same,PHOSPHORUS,[3],12.83 mg/dL
same,POTASSIUM,[3],6.87 MEQ/L
same,SODIUM,[3],149 MEQ/L
same,TOTAL BILIRUBIN,[3],0.47 mg/dL
same,TOTAL PROTEIN,[3],6.63 G/DL
same,BASOPHIL,[4],1.53%
same,EOSINOPHIL,[4],0.33%
same,ERYTHROCYTE COUNT,[4],7.03 x10E6/uL
same,HEMATOCRIT,[4],45.13%
same,HEMOGLOBIN,[4],14.27 G/DL
same,LEUKOCYTE COUNT,[4],9 x10E3/uL
same,LYMPHOCYTE,[4],77.9%
same,MEAN CORPUSCULAR HEMOGLOBIN,[4],20.33 pg
same,MEAN CORPUSCULAR HEMOGLOBIN CONCENTRATION,[4],31.67 G/DL
same,MEAN CORPUSCULAR VOLUME,[4],64.27 fL
same,MONOCYTE,[4],2.7%
same,NEUTROPHIL,[4],16.73%
same,PLATELET COUNT,[4],1381.67 x10E3/uL
same,ALANINE AMINOTRANSFERASE,[4],45 u/L
same,ALBUMIN,[4],3.7 G/DL
same,ALKALINE PHOSPHATASE,[4],435 u/L
same,ASPARTATE AMINOTRANSFERASE,[4],68.33 u/L
same,BLOOD UREA NITROGEN,[4],15.33 mg/dL
same,CHLORIDE,[4],103 MEQ/L
same,CHOLESTEROL,[4],54 mg/dL
same,CREATINE PHOSPHOKINASE,[4],128.67 u/L
same,CREATININE,[4],0.5 mg/dL
same,GLUCOSE,[4],186 mg/dL
same,PHOSPHORUS,[4],12.57 mg/dL
same,POTASSIUM,[4],6.6 MEQ/L
same,SODIUM,[4],148 MEQ/L
same,TOTAL BILIRUBIN,[4],0.47 mg/dL
same,TOTAL PROTEIN,[4],6.6 G/DL

# From ChEMBL document CHEMBL3885881, “DrugMatrix”
